In patent publication US20050288299A1, “Azaindole derivatives as inhibitors of p38 kinase” (priority 2002, published 2005):

The compounds below were run against p38α kinase (Homo sapiens, UniProt Q16539) (assay: p38α Flash Plate Assay (p38 kinase inhibition)). Conditions: in vitro; 150 μM ATP, 0.05 mM biotinylated peptide substrate, 5 nM enzyme, 60 minute incubation at 30° Celsius; read-out: P38 α-FLASHPLATE IC50.
Type: biochemical
Protocol: Assay for p38 Kinase Inhibition—p38α Flash Plate Assay
The compounds to be tested were solubilized in DMSO and diluted with water to the desired concentrations. The p38 kinase was diluted to 20 nM into a buffer containing 20 mM MOPS, pH 7.0, 25 mM beta-glycerol phosphate, 2 mg/ml gelatin, 0.5 mM EGTA (ethylene-bis-(oxyethylenenitrilo)-tetraacetic acid), and 4 mM dithiothreitol (DTT).
The reaction was carried out by mixing 20 μl test compound with 10 μl of a substrate cocktail containing 0.2 mM biotinylated peptide substrate and 0.6 mM ATP (+100 μCi/ml gamma-^33P-ATP) in a 5× assay buffer. The reaction was initiated by the addition of 10 μl of p38 kinase. Final assay conditions were 25 mM MOPS, pH 7.0, 26.25 mM beta-glycerol phosphate, 80 mM KCl, 22 mM MgCl2, 3 mM MgSO4, 1 mg/ml gelatin, 0.625 mM EGTA, 1 mM DTT, 0.05 mM peptide substrate, 150 μM ATP, and 5 nM enzyme. After a 60 minute incubation at 30° Celsius, the reaction was stopped by the addition of 10 μl per reaction of 0.25 M phosphoric acid.
A portion of the reaction was transferred to a streptavidin-coated Flash Plate (Perkin Elmer); the Flash Plate was incubated for 60 minutes at 30° Celsius and then washed 3× with PBS containing 0.01% Tween-20.
Counts incorporated are determined on a scintillation counter. Relative enzyme activity was calculated by subtracting background counts (counts measured in the absence of enzyme) from each result, and comparing the resulting counts to those obtained in the absence of inhibitor. IC50 values were determined with curve-fitting plots available with common software packages. The IC50 was expressed as the concentration of compound which inhibited the enzyme activity by 50%.

p38α kinase, sequence (Q16539 whole entry): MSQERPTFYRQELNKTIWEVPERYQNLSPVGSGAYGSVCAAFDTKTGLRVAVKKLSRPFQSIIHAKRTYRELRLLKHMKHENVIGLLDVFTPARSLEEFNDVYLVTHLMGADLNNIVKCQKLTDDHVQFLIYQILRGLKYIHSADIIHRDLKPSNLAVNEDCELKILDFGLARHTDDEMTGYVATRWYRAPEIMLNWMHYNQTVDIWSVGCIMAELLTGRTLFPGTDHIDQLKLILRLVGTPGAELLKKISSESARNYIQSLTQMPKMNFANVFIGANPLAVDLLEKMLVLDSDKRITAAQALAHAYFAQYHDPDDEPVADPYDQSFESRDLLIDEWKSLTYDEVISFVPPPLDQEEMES

`COc1nc2[nH]cc(C(=O)C(N)=O)c2cc1C(=O)N1CCC(Cc2ccc(F)cc2)CC1` [compound 17] was tested. Which IC50 did it give?
Its IC50 is 0.057 µM.

With `CNC(=O)C(=O)c1c[nH]c2nc(OC)c(C(=O)N3CCN([C@H](C)c4ccc(F)cc4)C[C@H]3C)cc12` [compound 32] as the compound, how does the IC50 read?
The IC50 was 0.03 µM.

For `Cc1nc2[nH]cc(C(=O)C(=O)N(C)C)c2cc1C(=O)N1C[C@H](C)N(Cc2ccc(F)cc2)C[C@H]1C` [compound 63], which IC50 is on record?
The IC50 was 0.03 µM.

With `CCNC(=O)C(=O)c1c[nH]c2nc(C)c(C(=O)N3C[C@H](C)N(Cc4ccc(F)cc4)C[C@H]3C)cc12` [compound 64] as the compound, how does the IC50 read?
The IC50 was 0.08 µM.

`COc1nc2[nH]cc(C(=O)C(=O)N(C)C)c2cc1C(=O)N1C[C@H](C)N(Cc2ccc(F)cc2)C[C@H]1C` [compound 19] was tested. Which IC50 did it give?
The IC50 was 0.0082 µM.

For `COCn1cc(C(=O)C(=O)N(C)C)c2cc(C(=O)N3C[C@H](C)N(Cc4ccc(F)cc4)C[C@H]3C)c(OC)nc21` [compound 55], which IC50 is on record?
Its IC50 is 0.02 µM.

Which IC50 does the source give for `CONC(=O)C(=O)c1cn(C)c2nc(OC)c(C(=O)N3C[C@H](C)N(Cc4ccc(F)cc4)C[C@H]3C)cc12` [compound 50] here?
The IC50 was 0.04 µM.

With `CCN(C)C(=O)C(=O)c1c[nH]c2nc(OC)c(C(=O)N3C[C@H](C)N(Cc4ccc(F)cc4)C[C@H]3C)cc12` [compound 20] as the compound, how does the IC50 read?
The IC50 was 0.012 µM.

For `COc1nc2[nH]cc(C(=O)C(=O)NC3CCCC3)c2cc1C(=O)N1C[C@H](C)N(C(c2ccccc2)c2ccccc2)C[C@H]1C` [compound 25], which IC50 is on record?
Its IC50 is 0.13 µM.

With `COc1nc2[nH]cc(C(=O)C(=O)N3CC[C@@H](O)C3)c2cc1C(=O)N1C[C@H](C)N(Cc2ccc(F)cc2)C[C@H]1C` [compound 21] as the compound, how does the IC50 read?
The IC50 was 0.01 µM.

`CNC(=O)C(=O)c1cn(Cc2ccc(OC)cc2)c2nc(OC)c(C(=O)N3C[C@H](C)N(Cc4ccc(F)cc4)C[C@H]3C)cc12` [compound 39] was tested. Which IC50 did it give?
Its IC50 is 0.61 µM.

Which IC50 does the source give for `CNC(=O)C(=O)c1c[nH]c2nc(OC)c(C(=O)N3C[C@H](C)N(C(c4ccccc4)c4ccccc4)C[C@H]3C)cc12` [compound 24] here?
Its IC50 is 0.042 µM.

How did the IC50 turn out when `CCNC(=O)C(=O)c1c[nH]c2nc(OCC)c(C(=O)N3C[C@H](C)N(Cc4ccc(F)cc4)C[C@H]3C)cc12` [compound 57] was run?
Its IC50 is 0.03 µM.

Which IC50 does the source give for `COc1nc2c(cc1C(=O)N1C[C@H](C)N(Cc3ccc(F)cc3)C[C@H]1C)c(C(=O)C(=O)NC(C)C)cn2C` [compound 49] here?
The IC50 was 0.06 µM.

Which IC50 does the source give for `COc1nc2[nH]cc(C(=O)C(=O)O)c2cc1C(=O)N1CCC(Cc2ccc(F)cc2)CC1` [compound 33] here?
Its IC50 is 0.015 µM.

How did the IC50 turn out when `Cc1nc2[nH]ccc2cc1C(=O)N1C[C@H](C)N(Cc2ccc(F)cc2)C[C@H]1C` [compound 40] was run?
Its IC50 is 0.42 µM.

`CCOc1nc2[nH]cc(C(=O)C(=O)NC)c2cc1C(=O)N1C[C@H](C)N(Cc2ccc(F)cc2)C[C@H]1C` [compound 34] was tested. Which IC50 did it give?
The IC50 was 0.03 µM.

How did the IC50 turn out when `COc1nc2[nH]cc(C(=O)C(F)(F)F)c2cc1C(=O)N1CCC(Cc2ccc(F)cc2)CC1` [compound 26] was run?
Its IC50 is 0.095 µM.

Which IC50 does the source give for `Cc1nc2[nH]cc(C(=O)C(=O)N3CCCC3)c2cc1C(=O)N1C[C@H](C)N(Cc2ccc(F)cc2)C[C@H]1C` [compound 65] here?
Its IC50 is 0.08 µM.

`COc1nc2c(cc1C(=O)N1C[C@H](C)N(Cc3ccc(F)cc3)C[C@H]1C)c(C(=O)C(=O)N1CCCC1)cn2C` [compound 46] was tested. Which IC50 did it give?
Its IC50 is 0.05 µM.

With `COc1nc2c(cc1C(=O)N1C[C@H](C)N(Cc3ccc(F)cc3)C[C@H]1C)c(C(=O)C(=O)N(C)C)cn2C` [compound 43] as the compound, how does the IC50 read?
The IC50 was 0.01 µM.

`CNC(=O)C(=O)c1c[nH]c2nc(OC)c(C(=O)N3C[C@H](C)N(Cc4ccc(F)cc4)C[C@H]3C)cc12` [compound 18] was tested. Which IC50 did it give?
Its IC50 is 0.02 µM.

For `C[C@@H]1CN(Cc2ccc(F)cc2)[C@@H](C)CN1C(=O)c1ccc2[nH]ccc2n1` [compound 67], which IC50 is on record?
Its IC50 is 0.75 µM.

With `COc1ccc(Cn2ccc3cc(C(=O)N4C[C@H](C)N(Cc5ccc(F)cc5)C[C@H]4C)c(OC)nc32)cc1` [compound 38] as the compound, how does the IC50 read?
The IC50 was 1.5 µM.

How did the IC50 turn out when `COc1cc2[nH]ccc2nc1C(=O)N1C[C@H](C)N(Cc2ccc(F)cc2)C[C@H]1C` [compound 74] was run?
Its IC50 is 0.098 µM.

How did the IC50 turn out when `CNC(=O)C(=O)c1c[nH]c2nc(C)c(C(=O)N3C[C@H](C)N(Cc4ccc(F)cc4)C[C@H]3C)cc12` [compound 62] was run?
The IC50 was 0.07 µM.
